Measured values from patent publication US9079893B2, “Ureido-pyrazole derivatives for use in the treatment of respiratory syncitial virus (RSV) infection” (Respivert, Ltd., priority 2010, dated 2015).
Where two headings read alike, the source gives them in different places.

What was measured:
[1] = test system: RSV F-protein expression in CF-BEC; assay: RSV F-protein expression in CF-BEC (HBECs from patients with cystic fibrosis) infected with RSV; format: cell-based, respiratory syncitial virus (RSV A2); settings: for CF-BEC E-max (%): test conc μg/mL: 0.0016-0.2 (Examples 1, 59), 0.04-0.2 (fluticasone propionate), 10 (ribavirin); for IC50: human respiratory syncytial virus, 96 h, read-out: CF-BEC IC50 (nM)
Method: (§1) Normal human bronchial epithelial cells (NHBEC) grown in 96 well plates, were infected at a multiplicity of infection (MOI) of 0.001 with RSV A2 (Strain A2, HPA, Salisbury, UK;) in LHC8 Media: RPMI-1640 (50:50) containing 15 mM magnesium chloride, and incubated for 1 hr at 37° C. to promote adsorption. The cells were then washed with PBS to remove non-infected virus particle and incubated for 4 days in fresh media. As appropriate, cells were pre-incubated with the test compound or DMSO for 2 hr, and then added again after wash with PBS as shown above.
(§2) The cells were fixed with 4% formaldehyde in PBS solution for 20 min, washed with washing buffer: PBS including 0.5% BSA and 0.05% Tween-20) (WB) and incubated with blocking solution (5% condensed milk in PBS) for 1 hr. Cells were then washed with WB and incubated for 1 hr at RT with anti-RSV (2F7) F-fusion protein antibody (mouse monoclonal) (lot 798760, Cat. No. ab43812, Abcam). After washing, cells were incubated with an HRP-conjugated secondary antibody (lot 00053170, Cat. No. P0447, Dako) and then TMB substrate (substrate reagent pack (lot 269472, Cat. No. DY999, R&D Systems, Inc.) was added.
(§3) The reaction was stopped by the addition of 2NH2SO4 (50 μL) and the resultant signal was determined colorimetrically (OD: 450 nm with a reference wavelength of 655 nm) in a microplate reader (Varioskan® Flash, ThermoFisher Scientific). Cells were then washed and a 2.5% crystal violet solution (lot 8656, Cat. No. PL7000, Pro-Lab Diagnostics) was applied for 30 mins. After washing with WB, 100 μL of 1% SDS was added to each well, and plates were shaken lightly on the shaker for 1 hr prior to reading the absorbance at 595 nm. The measured OD450-655 readings were corrected to the cell number by dividing the OD450-655 by the OD595 readings. The percentage inhibition for each well was calculated and the IC50 value was calculated from the concentration-response curve generated by the serial dilutions of compound.
(§4) HBECs obtained from patients with cystic fibrosis (CF-BEC) and Hep2 cells (human larynx epidermoid carcinoma cell line) were also used.

[2] = test system: RSV Memphis 37 induced IL-8 release; assay: RSV Memphis 37 induced IL-8 release in air-liquid interface cultured primary nasal epithelial cells; format: cell-based; settings: primary 3D cultured nasal epithelial cells, RSV Memphis 37, FIG. 1
Method: Primary nasal epithelial cells, cultured using an air-liquid interface, were purchased from Epithelix Sarl (Geneva, Switzerland). Fresh, warmed media (200 μL) containing either the test compound at the selected concentration or vehicle (DMSO; final concentration of 0.5%) was transferred to the apical chamber, and fresh, warmed media (700 μL) containing either the test compound at the selected concentration or vehicle (DMSO; final concentration of 0.5%) were transferred to the bottom chamber. After incubation for 2 hr, the media in upper well was removed carefully. The following day, fresh, warmed media (200 μL) containing either the test compound at the selected concentration or vehicle (DMSO; final concentration of 0.5%) was transferred to the apical chamber again, and after incubation for 2 hr, the media was removed. On the third day, cells were treated again for 2 hr, and the media was removed.
The cells in the apical well were infected with 50 μL of RSV Memphis 37 virus (Meridian) 2 (producing an MOI of approximately 0.1 at the estimated cell number of 1×10^6/well) and incubated for 1 hr. The apical media was then removed by aspiration and the wells were washed twice with warmed PBS. The plate was incubated at 37° C. […]
IL-8 concentrations were determined using a Duoset ELISA development kit (R&D Systems, Minneapolis, Minn.; FIG. 1)

RSV Memphis 37 = assay: RSV titre assay (CPE in Hep2) of air-liquid interface cultured primary nasal epithelial cells; format: cell-based, respiratory syncitial virus (RSV Memphis 37); settings: primary 3D cultured nasal epithelial cells, RSV Memphis 37, log [TCID50], FIG. 2
Method: Primary nasal epithelial cells, cultured using an air-liquid interface, were purchased from Epithelix Sarl (Geneva, Switzerland). Fresh, warmed media (200 μL) containing either the test compound at the selected concentration or vehicle (DMSO; final concentration of 0.5%) was transferred to the apical chamber, and fresh, warmed media (700 μL) containing either the test compound at the selected concentration or vehicle (DMSO; final concentration of 0.5%) were transferred to the bottom chamber. After incubation for 2 hr, the media in upper well was removed carefully. The following day, fresh, warmed media (200 μL) containing either the test compound at the selected concentration or vehicle (DMSO; final concentration of 0.5%) was transferred to the apical chamber again, and after incubation for 2 hr, the media was removed. On the third day, cells were treated again for 2 hr, and the media was removed. […]
The virus titre was estimated by CPE assay in Hep2 cells as follows: Supernatant (20 μL) was collected and 10-fold serial dilutions were prepared in 5%-FBS DMEM. […] The resultant cytopathic effects (CPE) were assessed by visual inspection 3 days after infection. The amount of virus required to infect 50% of Hep2 cells was calculated for each treatment and is reported as log [TCID50] […]

[3] = test system: RSV F-protein expression in Hep2 cells; assay: RSV F-protein expression in Hep2 cells infected with RSV; format: cell-based, respiratory syncitial virus (RSV A2); settings: for Hep2 E-max (%): Hep2 cells, test conc μg/mL: 0.0016-0.2 (Examples 1, 59), 0.04-0.2 (fluticasone propionate), 10 (ribavirin); for IC50: human respiratory syncytial virus, HEp-2, 96 h
Method: as §1, §2, §3, §4

[4] = test system: RSV F-protein expression in NHBEC; assay: RSV F-protein expression in NHBEC infected with RSV A2 (in vitro RSV virus load); format: cell-based, respiratory syncitial virus (RSV A2); settings: for NHBEC E-max (%): test conc μg/mL: 0.0016-0.2 (Examples 1, 59), 0.04-0.2 (fluticasone propionate), 10 (ribavirin); for IC50 / inhibition at 0.04 µg/mL: human respiratory syncytial virus, 96 h; for inhibition at 0.04 µg/mL: read-out: % inhibition (at 0.04 μg/mL)
Method: as §1, §2, §3

human RSV A2 = assay: RSV virus load in mouse lung; format: in vivo, Balb/c mice; settings: for Lung virus load (TCID50/g lung tissue ×10^3), day 3: 3 days post RSV infection; for Lung virus load (TCID50/g lung tissue ×10^3), day 5: 5 days post RSV infection; for Lung virus load (TCID50/g lung tissue ×10^3), day 7: 7 days post RSV infection; for inhibition of lung viral load: Day 5 post-infection (peak of virus titre), versus vehicle-dosed animals; for augmentation of viral load at Day 9: Day 9, when virus had been eliminated in vehicle-treated mice
Method: Wild type, specific pathogen-free male Balb/c mice aged 8 weeks and weighing approximately 25 g were obtained from the Animal Resource Centre Pty. Ltd., Australia. On day zero, appropriate animal groups were anaesthetised with the inhalation anaesthetic methoxyfluorane and nasally inoculated with either virus diluent (low protein serum free VPSSM from Invitrogen) or 10^6 TCID50 units of human RSV A2 in a volume of 50 μL. […] Eleven to thirteen animals from each group were sacrificed on days 3, 5, 7 and 9 to enable lung viral load to be determined using a plaque assay (Table 5).

[5] = intra-tracheal 20 μL of 0.1 mg/mL, mean ± SEM

**Q.** With `COCC(=O)Nc1cc(COc2ccc(NC(=O)Nc3cc(C(C)(C)C)nn3-c3ccc(C)cc3)c3ccccc23)ccn1` [Example 1, N-(4-((4-(3-(3-tert-Butyl-1-p-tolyl-1H-pyrazol-5-yl)ureido)naphthalen-1-yloxy)methyl)pyridin-2-yl)-2-methoxy acetamide] as the compound, how does the “CF-BEC E-max (%)” value [1] read?
**A.** Its value is 84%.

**Q.** And the IC50 [1]?
**A.** The IC50 was 69 nM.

**Q.** And the “inhibition on RSV-induced IL-8 production” value [2]?
**A.** Its value is “strong inhibition”.

**Q.** What about the “inhibition on RSV viral load” value (RSV Memphis 37) of the same compound?
**A.** The value was “strong inhibition”.

**Q.** And the “Hep2 E-max (%)” value [3]?
**A.** The value was 24%.

**Q.** What about the “NHBEC E-max (%)” value [4] of the same compound?
**A.** Its value is 51%.

**Q.** And the IC50 [4]?
**A.** The IC50 was 40.8 nM.

**Q.** And the inhibition at 0.04 µg/mL [4]?
**A.** The inhibition at 0.04 µg/mL was 46.8%.

**Q.** And the IC50 ([4]; read-out: NHBEC IC50 (nM))?
**A.** Its IC50 is 41 nM.

**Q.** What about the “Lung virus load (TCID50/g lung tissue ×10^3), day 3” value (human RSV A2; [5]) of the same compound?
**A.** The value was 66 ± 18 TCID50/g lung tissue ×10^3.

**Q.** And the “Lung virus load (TCID50/g lung tissue ×10^3), day 5” value (human RSV A2; [5])?
**A.** Its value is 1,545 ± 918^ TCID50/g lung tissue ×10^3.

**Q.** What about the “Lung virus load (TCID50/g lung tissue ×10^3), day 7” value (human RSV A2; [5]) of the same compound?
**A.** The value was 7.1 ± 5.2 TCID50/g lung tissue ×10^3.

**Q.** What about the “inhibition of lung viral load” value (human RSV A2) of the same compound?
**A.** The value was 67%.

**Q.** And the “augmentation of viral load at Day 9” value (human RSV A2)?
**A.** Its value is “did not augment viral load”.

**Q.** Which IC50 [4] does the source give for `Cc1ccc(-n2nc(C(C)(C)C)cc2NC(=O)Nc2ccc(OCCc3ccnc(NC(N)=O)c3)c3ccccc23)cc1` [Example 40, 4-(2-(4-(3-(3-tert-Butyl-1-p-tolyl-1H-pyrazol-5-yl)ureido)naphthalen-1-yloxy)ethyl)-3-(pyridin-2-yl)urea] here?
**A.** Its IC50 is 103 nM.

**Q.** What about the inhibition at 0.04 µg/mL [4] of the same compound?
**A.** The inhibition at 0.04 µg/mL was 24.9%.

**Q.** Which results are given for `COCC(=O)Nc1cc(Oc2ccc(NC(=O)Nc3cc(C(C)(C)C)nn3-c3ccc(C)cc3)c3ccccc23)ccn1` [Example 59, N-(4-(4-(3-(3-tert-Butyl-1-p-tolyl-1H-pyrazol-5-yl)ureido)naphthalen-1-yloxy)pyridin-2-yl)-2-methoxyacetamide]?
**A.** CF-BEC E-max (%) [1]: 87%; IC50 [1]: 58 nM; Hep2 E-max (%) [3]: 58%; IC50 ([3]; read-out: Hep2 IC50 (nM)): 289 nM; NHBEC E-max (%) [4]: 78%; inhibition at 0.04 µg/mL [4]: 67.5%; Lung virus load (TCID50/g lung tissue ×10^3), day 3 (human RSV A2; [5]): 81 ±29 TCID50/g lung tissue ×10^3; Lung virus load (TCID50/g lung tissue ×10^3), day 5 (human RSV A2; [5]): 448 ± 268 TCID50/g lung tissue ×10^3; Lung virus load (TCID50/g lung tissue ×10^3), day 7 (human RSV A2; [5]): 2.4 ± 0.8 TCID50/g lung tissue ×10^3; Lung virus load (TCID50/g lung tissue ×10^3), day 9 (human RSV A2; 9 days post RSV infection, intra-tracheal 20 μL of 0.1 mg/mL, mean ± SEM): 0.3 ± 0.1 TCID50/g lung tissue ×10^3; inhibition of lung viral load (human RSV A2): 90%; augmentation of viral load at Day 9 (human RSV A2): did not augment viral load

**Q.** `Cc1ccc(-n2nc(C(C)(C)C)cc2NC(=O)Nc2ccc(Oc3ccnc(NC(=O)N4CCCC4)c3)c3ccccc23)cc1` [Example 65, N-(4-(4-(3-(3-tert-Butyl-1-p-tolyl-1H-pyrazol-5-yl)ureido)naphthalen-1-yloxy)pyridin-2-yl)pyrrolidine-1-carboxamide] was tested. Which inhibition at 0.04 µg/mL [4] did it give?
**A.** Its inhibition at 0.04 µg/mL is 56.5%.

**Q.** With `CNC(=O)Nc1cc(Oc2ccc(NC(=O)Nc3cc(C(C)(C)C)nn3-c3ccc(C)cc3)c3ccccc23)ccn1` [Example 88] as the compound, how does the inhibition at 0.04 µg/mL [4] read?
**A.** The inhibition at 0.04 µg/mL was 71.7%.

**Q.** With `CCC(=O)O[C@]1(C(=O)SCF)[C@H](C)C[C@H]2[C@@H]3C[C@H](F)C4=CC(=O)C=C[C@]4(C)[C@@]3(F)[C@@H](O)C[C@@]21C` [Fluticasone propionate, reference compound] as the compound, how does the “CF-BEC E-max (%)” value [1] read?
**A.** The value was 10%.

**Q.** What about the “NHBEC E-max (%)” value [4] of the same compound?
**A.** Its value is −38%.

**Q.** What does the source list for `NC(=O)c1ncn([C@@H]2O[C@H](CO)[C@@H](O)[C@H]2O)n1` [Ribavirin, reference compound]?
**A.** CF-BEC E-max (%) [1]: 53%; Hep2 E-max (%) [3]: 93%; IC50 ([3]; read-out: Hep2 IC50 (footnote a: μM)): 9000 nM; NHBEC E-max (%) [4]: 78%
